# In publication PMC5688156, “The natural product carolacton inhibits folate-dependent C1 metabolism by targeting FolD/MTHFD” (Nature Communications, 2017):
# Biological target: T1, ecFolD Q98H (Escherichia coli, UniProt P24186, Q98H)
# T1 construct: His-tag (TEV-cleavable, vector pHis-TEV); made in house; host or cells: E. coli BL21 (DE3)
# Test: SPR binding to ecFolD Q98H
# Parameters: species or system E. coli
# Method: All surface plasmon resonance (SPR) experiments described in this study were performed on a Biacore X100 system. Different FolDs with or without His-tag were coupled on CM5 sensor chips (GE Healthcare) by the amine coupling method using a kit from GE Healthcare Life Sciences (Freiburg, Germany). A pH scouting process was performed before protein immobilization to test the most appropriate buffer and the protein concentration for protein coupling. Finally, 20 μg/mL of ecFolD in 10 mM maleate buffer (pH 6.8), 30 μg/mL of ecFolD Q98H in 10 mM maleate buffer (pH 6.3), 40 μg/mL of ecFolD K54N in 10 mM maleate buffer (pH 5.8), 20 μg/mL of spFolD in 10 mM maleate buffer (pH 6.0) and 15 μg/mL of MTHFD2 (His-tag cleaved) in 10 mM maleate buffer (pH 6.8) were used for coupling. In the protein immobilization procedure, the contact time was calculated based on the pH scouting results to achieve ~3000–5000 relative resonance units (RU). The buffer used in the SPR assays was 1× HBS-P buffer (10 mM HEPES pH 7.4, 150 mM NaCl, 0.05% Tween 20). The 1 mM stock solution of carolacton was prepared in 1× HBS-P buffer and diluted to different concentration ranges by two-fold serial dilution. In the SPR assay, the association time was 180 s and the dissociation time was 600 s. Data analysis was performed using the Biacore evaluation software. […]
smiles,measurement,value
CO[C@H](CC(=O)O)[C@@H](C)C(=O)[C@H](C)/C=C(\C)[C@H]1OC(=O)[C@H](O)[C@H](O)/C=C/[C@H](C)CCC[C@@H]1C [carolacton],Kd,20 µM
same,koff,0.608 s⁻¹
